Assay results as given in patent US9346795B2, “Substituted sulfonamides useful as antiapoptotic Bcl inhibitors” (Bristol-Myers Squibb Company, priority 2011, dated 2016).
pIC50: −log10 of the molar value.

Tests used:
Bcl-xL = Bcl-xL (Homo sapiens (Human), UniProt Q07817); test: Bcl-xL/Bim Fluorescence Resonance Energy Transfer Assay (FRET); assay type: binding
Method in brief: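 Biotin-Bcl-xL was incubated with Bim and compound at eleven concentrations for 60 min at room temperature. Streptavidin-terbium detection was then added for 30 min in the dark, and FRET was read. IC50 values were obtained by non-linear regression.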

Bcl-2 = Bcl-2 (Homo sapiens (Human), UniProt P10415); test: Bcl-2/Bim Fluorescence Polarization Assay (FPA); assay type: binding
Chain of Bcl-2 (P10415 whole entry): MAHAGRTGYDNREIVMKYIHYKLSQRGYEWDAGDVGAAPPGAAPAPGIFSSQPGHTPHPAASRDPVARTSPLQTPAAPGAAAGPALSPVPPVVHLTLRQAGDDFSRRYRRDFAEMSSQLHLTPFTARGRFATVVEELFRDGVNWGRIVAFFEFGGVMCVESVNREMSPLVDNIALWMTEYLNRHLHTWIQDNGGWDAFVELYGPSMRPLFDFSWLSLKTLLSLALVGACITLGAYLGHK

Chain of Bcl-xL (Q07817 whole entry): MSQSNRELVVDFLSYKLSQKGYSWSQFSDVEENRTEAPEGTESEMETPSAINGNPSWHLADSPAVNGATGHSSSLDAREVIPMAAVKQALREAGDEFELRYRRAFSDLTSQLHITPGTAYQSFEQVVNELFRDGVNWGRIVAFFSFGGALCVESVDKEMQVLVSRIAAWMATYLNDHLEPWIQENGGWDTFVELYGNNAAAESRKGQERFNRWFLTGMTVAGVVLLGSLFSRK

CCCCN(CCCC)C(=O)c1nn(-c2ccc(C(=O)NS(=O)(=O)c3ccc4ccccc4c3)cc2C(=O)N2Cc3ccccc3C[C@H]2COCCCOC)c(C)c1Cl [Example 105, N,N-Dibutyl-4-chloro-1-(2-((S)-3-((3-methoxypropoxy)methyl)-1,2,3,4-tetrahydroisoquinoline-2-carbonyl)-4-(naphthalen-2-ylsulfonylcarbamoyl)phenyl)-5-methyl-1H-pyrazole-3-carboxamide]
pIC50 (Bcl-xL): 7.52 | pIC50 (Bcl-2): 7.70

CCCCN(Cc1ccc(-c2ccc(CC(=O)O)cc2)cc1)C(=O)c1nn(-c2ccc(C(=O)NS(=O)(=O)c3ccc4c(c3)CCN4Cc3ccc(Cl)c(Cl)c3)cc2C(=O)N2CCc3ccccc3C2)c(C)c1Cl [Example 213, 2-(4′-((N-butyl-4-chloro-1-(4-(1-(3,4-dichlorobenzyl)indolin-5-ylsulfonylcarbamoyl)-2-(1,2,3,4-tetrahydroisoquinoline-2-carbonyl)phenyl)-5-methyl-1H-pyrazole-3-carboxamido)methyl)biphenyl-4-yl)acetic acid]
pIC50 (Bcl-xL): 7.10 | pIC50 (Bcl-2): 8.00

CCCCN(C(=O)c1nn(-c2ccc(C(=O)NS(=O)(=O)c3ccc4c(Cl)ccc(Cl)c4c3)cc2C(=O)N2CCc3ccccc3C2)c(C)c1Cl)c1cccc(-c2cccc(Cl)c2)c1 [Example 222, N-butyl-4-chloro-N-(3′-chlorobiphenyl-3-yl)-1-(4-(5,8-dichloronaphthalen-2-ylsulfonylcarbamoyl)-2-(1,2,3,4-tetrahydroisoquinoline-2-carbonyl)phenyl)-5-methyl-1H-pyrazole-3-carboxamide]
pIC50 (Bcl-xL): 7.40 | pIC50 (Bcl-2): 7.15

CCCCN(CCCC)C(=O)c1cn(CC(=O)O)c(-c2ccc(C(=O)NS(=O)(=O)c3cccc4ccccc34)cc2C(=O)N2CCc3ccccc3C2)n1 [Example 269, 2-(4-(Dibutylcarbamoyl)-2-(4-(naphthalen-1-ylsulfonylcarbamoyl)-2-(1,2,3,4-tetrahydroisoquinoline-2-carbonyl)phenyl)-1H-imidazol-1-yl)acetic acid]
pIC50 (Bcl-xL): 7.52 | pIC50 (Bcl-2): 6.85

CCCCN(CCCC)C(=O)c1nn(-c2ccc(C(=O)NS(=O)(=O)c3cc(Br)c4c(c3)c(Br)cn4CC)cc2C(=O)N2CCc3ccccc3C2)c(C)c1Cl [Example 85, N,N-dibutyl-4-chloro-1-(4-(3,7-dibromo-1-ethyl-1H-indol-5-ylsulfonylcarbamoyl)-2-(1,2,3,4-tetrahydroisoquinoline-2-carbonyl)phenyl)-5-methyl-1H-pyrazole-3-carboxamide]
pIC50 (Bcl-xL): 7.70 | pIC50 (Bcl-2): 8.38

CCCCN(C(=O)c1nn(-c2ccc(C(=O)NS(=O)(=O)c3ccc4ccccc4c3)cc2C(=O)N2CCc3ccccc3C2)c(C)c1Cl)c1cccc(-c2cccc(Cl)c2)c1 [Example 152, N-butyl-4-chloro-N-(3′-chlorobiphenyl-3-yl)-5-methyl-1-(4-(naphthalen-2-ylsulfonylcarbamoyl)-2-(1,2,3,4-tetrahydroisoquinoline-2-carbonyl)phenyl)-1H-pyrazole-3-carboxamide]
pIC50 (Bcl-xL): 6.80 | pIC50 (Bcl-2): 7.30

CCCCN(CCCC)C(=O)c1nn(-c2ccc(C(=O)NS(=O)(=O)c3ccc4c(ccn4Cc4ccc(Cl)c(Cl)c4)c3)cc2C(=O)N2Cc3ccccc3C[C@H]2CO)c(C)c1Cl [Example 198, N,N-dibutyl-4-chloro-1-(4-(1-(3,4-dichlorobenzyl)-1H-indol-5-ylsulfonylcarbamoyl)-2-((S)-3-(hydroxymethyl)-1,2,3,4-tetrahydroisoquinoline-2-carbonyl)phenyl)-5-methyl-1H-pyrazole-3-carboxamide]
pIC50 (Bcl-xL): 7.30 | pIC50 (Bcl-2): 8.05

CCCCN(CCCC)C(=O)c1cn(C)c(-c2ccc(C(=O)NS(=O)(=O)c3ccc4cccc(I)c4c3)cc2C(=O)N2Cc3ccccc3C[C@H]2CN)n1 [Example 282, 2-(2-((S)-3-(Aminomethyl)-1,2,3,4-tetrahydroisoquinoline-2-carbonyl)-4-(8-iodonaphthalen-2-ylsulfonylcarbamoyl)phenyl)-N,N-dibutyl-1-methyl-1H-imidazole-4-carboxamide]
pIC50 (Bcl-xL): 8.00 | pIC50 (Bcl-2): 8.16

CCCCN(CCCC)C(=O)c1nn(-c2ccc(C(=O)NS(=O)(=O)c3ccc4c(Cl)ccc(Br)c4c3)cc2C(=O)N2CCc3ccccc3C2)c(C)c1Cl [Example 43, 1-(4-(8-bromo-5-chloronaphthalen-2-ylsulfonylcarbamoyl)-2-(1,2,3,4-tetrahydroisoquinoline-2-carbonyl)phenyl)-N,N-dibutyl-4-chloro-5-methyl-1H-pyrazole-3-carboxamide]
pIC50 (Bcl-xL): 7.70 | pIC50 (Bcl-2): 8.41

CCCCN(CCCC)C(=O)c1nn(-c2ccc(C(=O)NS(=O)(=O)c3ccc4ccccc4c3)cc2C(=O)N2CCc3ccccc3C2)c(C)c1Cl [Example 1, N,N-Dibutyl-4-chloro-5-methyl-1-(4-(naphthalen-2-ylsulfonylcarbamoyl)-2-(1,2,3,4-tetrahydroisoquinoline-2-carbonyl)phenyl)-1H-pyrazole-3-carboxamide]
pIC50 (Bcl-xL): 7.70 | pIC50 (Bcl-2): 7.52

CCCCN(CCCC)C(=O)c1cc(C)n(-c2ccc(C(=O)NS(=O)(=O)c3ccc4ccccc4c3)cc2C(=O)N2CCc3ccccc3C2)n1 [Example 164, N,N-Dibutyl-5-methyl-1-(4-(naphthalen-2-ylsulfonylcarbamoyl)-2-(1,2,3,4-tetrahydroisoquinoline-2-carbonyl)phenyl)-1H-pyrazole-3-carboxamide]
pIC50 (Bcl-xL): 7.52 | pIC50 (Bcl-2): 6.64

CCCCN(CCCC)C(=O)c1cn(C)c(-c2ccc(C(=O)NS(=O)(=O)c3ccc4ccccc4c3)cc2C(=O)N2CCc3ccccc3C2)n1 [Example 264, N,N-Dibutyl-1-methyl-2-(4-(naphthalen-2-ylsulfonylcarbamoyl)-2-(1,2,3,4-tetrahydroisoquinoline-2-carbonyl)phenyl)-1H-imidazole-4-carboxamide]
pIC50 (Bcl-xL): 7.40 | pIC50 (Bcl-2): 6.96

CCCCN(CCCC)C(=O)c1nn(-c2ccc(C(=O)NS(=O)(=O)c3ccc4c(N(C)C)ccc(Br)c4c3)cc2C(=O)N2CCc3ccccc3C2)c(C)c1Cl [Example 31, 1-(4-(8-bromo-5-(dimethylamino)naphthalen-2-ylsulfonylcarbamoyl)-2-(1,2,3,4-tetrahydroisoquinoline-2-carbonyl)phenyl)-N,N-dibutyl-4-chloro-5-methyl-1H-pyrazole-3-carboxamide]
pIC50 (Bcl-xL): 7.15 | pIC50 (Bcl-2): 7.52

CCCCN(CCCC)C(=O)c1nn(-c2ccc(C(=O)NS(=O)(=O)c3ccc4c(Cl)cccc4c3)cc2C(=O)N2CCc3ccccc3C2)c(C)c1Cl [Example 2, N,N-dibutyl-4-chloro-1-(4-(5-chloronaphthalen-2-ylsulfonylcarbamoyl)-2-(1,2,3,4-tetrahydroisoquinoline-2-carbonyl)phenyl)-5-methyl-1H-pyrazole-3-carboxamide]
pIC50 (Bcl-xL): 7.52 | pIC50 (Bcl-2): 6.70

CCCCN(CCCC)C(=O)c1nn(-c2ccc(C(=O)NS(=O)(=O)c3ccc4cccc(Cl)c4c3)cc2C(=O)N2Cc3ccccc3C[C@H]2CN)c(C)c1Cl [Example 203, 1-(2-((S)-3-(aminomethyl)-1,2,3,4-tetrahydroisoquinoline-2-carbonyl)-4-(8-chloronaphthalen-2-ylsulfonylcarbamoyl)phenyl)-N,N-dibutyl-4-chloro-5-methyl-1H-pyrazole-3-carboxamide]
pIC50 (Bcl-xL): 8.00 | pIC50 (Bcl-2): 8.00

CCCCN(CCCC)C(=O)c1nn(-c2ccc(C(=O)NS(=O)(=O)c3ccc4ccc(OCCCN5CCCC5)cc4c3)cc2C(=O)N2CCc3ccccc3C2)c(C)c1Cl [Example 40, N,N-dibutyl-4-chloro-5-methyl-1-(4-(7-(3-(pyrrolidin-1-yl)propoxy)naphthalen-2-ylsulfonylcarbamoyl)-2-(1,2,3,4-tetrahydroisoquinoline-2-carbonyl)phenyl)-1H-pyrazole-3-carboxamide]
pIC50 (Bcl-xL): 7.52 | pIC50 (Bcl-2): 5.42

CCCCc1c(-c2ccc(C(=O)NS(=O)(=O)CC[Si](C)(C)C)cc2C(=O)N2CCc3ccccc3C2)c(C(=O)OCC)nn1-c1ccccc1 [Example 239, Ethyl 5-butyl-1-phenyl-4-(2-(1,2,3,4-tetrahydroisoquinoline-2-carbonyl)-4-(2-(trimethylsilyl)ethylsulfonylcarbamoyl)phenyl)-1H-pyrazole-3-carboxylate]
pIC50 (Bcl-xL): 7.52 | pIC50 (Bcl-2): 6.24

CCCCN(CCCC)C(=O)c1cn(CC(=O)NC)c(-c2ccc(C(=O)NS(=O)(=O)c3ccc4ccccc4c3)cc2C(=O)N2CCc3ccccc3C2)n1 [Example 265, N,N-Dibutyl-1-(2-(methylamino)-2-oxoethyl)-2-(4-(naphthalen-2-ylsulfonylcarbamoyl)-2-(1,2,3,4-tetrahydroisoquinoline-2-carbonyl)phenyl)-1H-imidazole-4-carboxamide]
pIC50 (Bcl-xL): 7.15 | pIC50 (Bcl-2): 6.37

CCCCN(CCCC)C(=O)c1nn(-c2ccc(C(=O)NS(=O)(=O)c3cc(Br)c4c(c3)CCN4CC)cc2C(=O)N2Cc3ccccc3C[C@H]2CO)c(C)c1Cl [Example 205, 1-(4-(7-bromo-1-ethylindolin-5-ylsulfonylcarbamoyl)-2-((S)-3-(hydroxymethyl)-1,2,3,4-tetrahydroisoquinoline-2-carbonyl)phenyl)-N,N-dibutyl-4-chloro-5-methyl-1H-pyrazole-3-carboxamide]
pIC50 (Bcl-xL): 8.05 | pIC50 (Bcl-2): 8.04

CCCCc1c(-c2ccc(C(=O)NS(=O)(=O)c3ccc4c(Cl)ccc(Br)c4c3)cc2C(=O)N2CCc3ccccc3C2)c(C(=O)OCC)nn1-c1ccc(Oc2cccc(Cl)c2)cc1 [Example 251, ethyl 4-(4-(8-bromo-5-chloronaphthalen-2-ylsulfonylcarbamoyl)-2-(1,2,3,4-tetrahydroisoquinoline-2-carbonyl)phenyl)-5-butyl-1-(4-(3-chlorophenoxy)phenyl)-1H-pyrazole-3-carboxylate]
pIC50 (Bcl-xL): 7.30 | pIC50 (Bcl-2): 7.70

CCCCN(CCCC)C(=O)c1nn(-c2ccc(C(=O)NS(=O)(=O)c3ccc4ccc(OCCCN(C)C)cc4c3)cc2C(=O)N2CCc3ccccc3C2)c(C)c1Cl [Example 39, N,N-dibutyl-4-chloro-1-(4-(7-(3-(dimethylamino)propoxy)-naphthalen-2-ylsulfonylcarbamoyl)-2-(1,2,3,4-tetrahydroisoquinoline-2-carbonyl)phenyl)-5-methyl-1H-pyrazole-3-carboxamide]
pIC50 (Bcl-xL): 7.70 | pIC50 (Bcl-2): 5.84
